Results from US12497610B2, “Functional genomics using CRISPR-CAS systems for saturating mutagenesis of non-coding elements, compositions, methods, libraries and applications thereof” (THE BROAD INSTITUTE, INC., priority 2015, dated 2025).

Legend:
Type in all cases: cell-based, human
CUL3 = assay: ddPCR quantification of CUL3 expression in A375 cells transduced with individual sgRNAs; conditions: for decrease in CUL3 expression: A375, 7 days post-transduction, normalized to non-targeting sgRNAs; for CUL3 expression: A375, relative to non-targeting sgRNAs, result in words
Excerpt: Array Validation of Primary Screen Hits
For individual (array) validation of noncoding sgRNAs, Applicants first identified sgRNAs enriched in the top 5% of the library as given by the normalized log 2(Vemu/DMSO) read ratio. In order to have high confidence in these sgRNAs, Applicants used the minimum of the two infection replicates for the normalized log2 (Vemu/DMSO) read ratio. […] This ensures that putative noncoding functional elements were supported by the presence of at least 2 enriched sgRNAs. From this group, Applicants picked 25 sgRNAs distributed across different genomic regions for individual validation (see table S2 for a list of sgRNA sequences). Applicants also included 3 exon-targeting and 3 non-targeting sgRNAs to serve as positive and negative controls, respectively.
For each sgRNA, standard desalted short oligonucleotides (Integrated DNA Technologies) were annealed, phosphorylated and cloned into a lentiviral vector (lentiCRISPRv2, Addgene 52961) that contained Cas9 and an sgRNA cassette. For each sgRNA, A375 cells were transduced with lentiviral supernatants. After 24 hours, media was replaced with R10 with 1 ug/mL of puromycin. Viral volumes were titered such that 20-40% of cells survived after puromycin selection. After selection and expansion for 7 days in puromycin, cell were plated for DNA/RNA extraction, vemurafenib resistance, or ChIP assays.
RNA Extraction and ddPCR Quantification of CUL3 Expression
After 7 days of puromycin selection, A375 cells transduced with individual lentiCRISPRv2 sgRNAs were plated in 3 replicate wells (2×10^3 cells/well) in 96-well plates. After 4 days (70-90% confluent), RNA was extracted using a homemade version of a rapid lysis kit for quantitative PCR (similar to commercial “Cells-to-Ct”-style kits). This procedure (detailed below) enables rapid RNA extraction and qPCR/ddPCR readout from 96-well plates with minimal hands-on time.
Cells were first washed in 100 ul of chilled phosphate-buffered saline (PBS). Then, cells were incubated at room temperature for 8 minutes in 50 ul of Complete Lysis Buffer. The Complete Lysis Buffer consists of the Base Lysis Buffer with freshly added 100 ug/ml Proteinase K (Sigma P2308) and 300 U/mL DNase I (Sigma D2821). When adding DNase I, it is important to not vortex but mix only by gentle pipetting. The Base Lysis Buffer is made in RNAse-free water (ThermoFisher Scientific 10977015) with 10 mM Tris pH8 (Ambion AM9856), 0.5 mM MgCl2 (Sigma M1028), 0.44 mM CaCl2 (Sigma 21115), 10 uM DTT (Sigma 43816), 0.1% Triton X-114 (Calbiochem 648468), and 1.73 mN HCl (Sigma 318965) and should have a final pH of 7.8. The Base Lysis Buffer is stable at 4° C. for up to 6 months.
After the 8-minute incubation in Complete Lysis Buffer, 30 ul of the cell lysis was added to new PCR plates containing 3 ul of STOP buffer in each well to stop the lysis reaction. The STOP buffer is made in RNAse-free water with 1 mM Proteinase K inhibitor AAPF N-(Methoxysuccinyl)-Ala-Ala-Pro-Phe-chloromethyl ketone (SEQ ID NO: 174) (Millipore 539470), 90 mM EDTA (ThermoFisher Scientific 15575020), and 113 uM DTT (Sigma 43816). The final pH of the STOP buffer should be 8, adjusted appropriately with HCl and KOH. The STOP buffer is stable for up to 6 months at 20° C. The lysis reaction was mixed with the STOP buffer by pipetting up and down 5 times. Applicants then incubated the lysis and STOP buffer for at least 2 minutes but not more than 20 minutes. (Extra stopped lysis can be stored at −80° C. for up to 5 months.)
Applicants transferred 5 ul of the stopped lysis to new PCR plates with 20 ul of RT master mix. The RT master mix is from the RevertAid Reverse Transcriptase kit (ThermoFisher Scientific K1691) and is as described in the manufacturer's protocol but with an added oligo-dT primer. […]

JUN = assay: ChIP-ddPCR for JUN; conditions: ChIP-ddPCR compared with control cells
Procedure: (§1) Chromatin Immunoprecipitation (ChIP) for Histone Modifications and Transcription Factors
(§2) After 7 days of puromycin selection, A375 cells transduced with individual lentiCRISPRv2 sgRNAs were plated in T-225 flasks and grown to 70-90% confluence (6 days). At this point, chromatin fixation was initiated by adding formaldehyde directly to the growth media (final concentration 1%) and incubating at 37° C. for 10 minutes. The entire two-day ChIP procedure was performed using the Magna ChIP HiSens Chromatin Immunoprecipitation Kit (Millipore 1710460), as specified in the manufacturer's protocol. […]
(§3) Using BatchPrimer3, Applicants designed primers centered on the sgRNA target site with a target amplicon size of 80-120 bp (see table S4 for ChIP-ddPCR primers). Droplet digital PCR (ddPCR) reactions using EvaGreen (BioRad 1864034) were used to quantify changes between input, histone/TF ChIP, and IgG ChIP samples for A375 cells transduced with specific sgRNAs and untransduced A375 cells. […] Applicants calculated the percent change in ChIP signal after genome editing by normalizing each ChIP sample to its corresponding input sample and then comparing the normalized ChIP between A375s transduced with specific sgRNAs and untransduced (control) A375 cells.

FOS = assay: ChIP-ddPCR for FOS; conditions: ChIP-ddPCR compared with control cells
Procedure: as §1, §2, §3

ZNF263 = assay: ChIP-ddPCR for ZNF263; conditions: ChIP-ddPCR vs non-targeting sgRNA
Procedure: as §1, §2, §3

CTCF = assay: ChIP-ddPCR for CTCF; conditions: ChIP-ddPCR at the site after editing
Procedure: as §1, §2, §3

[1] = tested on: sgRNA target sites near CUL3; assay: Deep sequencing after CRISPR mutagenesis (indel analysis at sgRNA target sites)
Procedure: Deep Sequencing after CRISPR Mutagenesis
After 7 days of puromycin selection, A375 cells transduced with individual lentiCRISPRv2 sgRNAs were plated in 2 replicate wells (2×10^3 cells/well) in 96-well plates. Cells were plated in either R10+DMSO or R10+vemurafenib (2 uM). After 4 days (70-90% confluent), Applicants extracted gDNA from all wells (Illumina/Epicentre QuickExtract QE09050) and performed amplification and deep sequencing as previously described (Shalem et al. 2014). Briefly, for each sgRNA target site, Applicants designed PCR primers to amplify genomic regions surrounding the site (100-200 bp amplicons) and to add universal handles for the second stage of amplification (see table S3 for all deep sequencing primers). Applicants then used a second PCR step to add sequences needed for Illumina sequencing and sample barcoding. Applicants pooled all samples together and sequenced them on a MiSeq using a 250 bp single-end read (Illumina MS-102-2002).
Custom Python scripts were used for barcode demultiplexing and insertion-deletion (indel) length measurement. To measure indel length and eliminate any potential off-target or primer-dimer reads, Applicants first identified our genomic (first PCR step) primers in each read. Applicants then checked that each read contained at least 5 bases beyond each of the genomic primers. Typically, 80-90% of demultiplexed reads matched this criterion. Reads matching this criterion were used to measure indel length by comparing distances between the identified primer-adjacent sequences with those in the reference sequence. Further multiple alignment analysis for specific sgRNAs was done using Geneious's iterative k-mer multiple alignment tool (Geneious 6.1.7).

YY1 = assay: ChIP-ddPCR for YY1; conditions: ChIP-ddPCR around cut site vs non-targeting sgRNA
Procedure: as §1, §2, §3

| Substance | decrease in CUL3 expression (CUL3) [%] | JUN binding (JUN) | FOS binding (FOS) | CUL3 expression (CUL3) | ZNF263 occupancy (ZNF263) | other results |
| --- | --- | --- | --- | --- | --- | --- |
| distal 3′ sg1: validation sgRNA AGOACACAGTCATAACCACA, SEQ ID NO 445, 3′ of CUL3 (guide AGCACACAGTCATAACCACA; expressed or natural sequence) | ~25 | decreased | decreased |  |  |  |
| distal 3′ sg2: validation sgRNA GCAGCGTCCGGAGTTGGCAC, SEQ ID NO 444, 3′ of CUL3 (expressed or natural sequence) | ~25 | decreased | decreased |  |  |  |
| Intron-sg2: validation sgRNA CGCGGAGTCCTCCCTGTGTG, SEQ ID NO 455, intron and promoter (expressed or natural sequence) |  |  |  | decrease in CUL3 expression | significant decrease |  |
| Intron-sg1: validation sgRNA TCCGCGGCTGCTAGCAGCGC, SEQ ID NO 454, intron and promoter (expressed or natural sequence) |  |  |  | decrease in CUL3 expression | significant decrease |  |
| CTCF sg1: validation sgRNA GCCACAGCCATGCCCAGTOG, SEQ ID NO 446, 3′ of CUL3 (guide GCCACAGCCATGCCCAGTGG; expressed or natural sequence) | 30 |  |  |  |  | decrease of CTCF occupancy (CTCF): 45%; mean indel size ([1]; A375, deep sequencing of the site): −9.5 bp; amplicons / alleles containing insertion-deletion (indel) mutations ([1]; A375 after 7 days selection): 96% |
| 5′-UTR sg2: validation sgRNA GCGCTCCTCCGCGATGGCGG, SEQ ID NO 456, 5′ UTR (expressed or natural sequence) |  |  |  | significantly decrease |  | decrease of YY1 binding (YY1): 67%; indel mutations that damage a YY1 binding motif ([1]; A375, vemurafenib vs DMSO control, 4 days): more indel mutations that damage a YY1 binding motif |
